Calls of active or inactive are those of the source. The calls are words filed in the database; no cut-off is given here.

What all share (assay type): cell-based
Data set [1] addresses T1, Antigen-presenting glycoprotein CD1d (Homo sapiens) (UniProt P15813).
T1 sequence (whole entry): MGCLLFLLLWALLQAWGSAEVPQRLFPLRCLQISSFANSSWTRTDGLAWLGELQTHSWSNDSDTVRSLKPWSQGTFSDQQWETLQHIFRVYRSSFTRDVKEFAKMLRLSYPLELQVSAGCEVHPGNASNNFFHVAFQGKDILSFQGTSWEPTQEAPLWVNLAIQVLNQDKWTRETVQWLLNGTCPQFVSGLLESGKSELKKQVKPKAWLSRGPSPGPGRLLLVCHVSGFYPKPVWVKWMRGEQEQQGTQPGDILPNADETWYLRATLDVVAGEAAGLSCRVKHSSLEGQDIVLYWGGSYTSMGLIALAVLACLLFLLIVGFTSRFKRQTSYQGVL
Nature of the data set: Binding affinity to human CD1d expressed in human HeLa cells assessed as increase in IFNgamma production at 10 uM to 10^-4 uM incubated overnight prior to iNKT MAD11 cells addition to CD1d-compound mixture and measured after 6 hrs by ELISA. In general terms: ELISA stands for enzyme-linked immunosorbent assay.

Data set [2] concerns the target T1, Antigen-presenting glycoprotein CD1d (Homo sapiens). Nature of the data set: Binding affinity to human CD1d expressed in human HeLa cells assessed as increase in IL-13 production at 10 uM to 10^-4 uM incubated overnight prior to iNKT MAD11 cells addition to CD1d-compound mixture and measured after 24 hrs by ELISA.
Data set [3] deals with iNKT. Briefly: Effect on human iNKT MAD11 cells stimulation assessed as increase in IFNgamma production pretreated with HeLa cells for overnight prior to iNKT MAD11 cells addition and measured after 6 hrs by ELISA.
For data set [4], the system named is iNKT. Briefly: Effect on human iNKT MAD11 cells stimulation assessed as increase in IL-13 production pretreated with HeLa cells for overnight prior to iNKT MAD11 cells addition and measured after 24 hrs by ELISA.

In the case of `CCCCCCCCCCCCCCCCCCCCCCCCCC(=O)N[C@@H](CO[C@H]1O[C@H](CO)[C@H](O)[C@H](O)[C@H]1O)C(F)(F)[C@H](O)CCCCCCCCCCCCCC`, the outcome in data set [1] and in data set [2] was Active. In addition, the Activity entry in the data set with iNKT [3] and in the data set with iNKT [4] was “Non-Toxic” each time.
In the case of `CCCCCCCCCCCCCCCCCCCCCCCCCC(=O)N[C@@H](CO[C@H]1O[C@H](CO)[C@H](O)[C@H](O)[C@H]1O)C(F)(F)C(F)(F)CCCCCCCCCCCCCC`, the result in data set [1] and in data set [2] was Active. Moreover, the Activity result in the data set with iNKT [3] and in the data set on iNKT [4] was “Non-Toxic” throughout.
As to `CCCCCCCCCCCCCCCCCCCCCCCCCC(=O)N[C@@H](CO[C@H]1O[C@H](CO)[C@H](O)[C@H](O)[C@H]1O)C(F)(F)[C@@H](O)CCCCCCCCCCCCCC`, the outcome in data set [1] and in data set [2] was Active. In addition, the Activity result with iNKT [3] and in the data set on iNKT [4] was “Non-Toxic” in each case.
Consider `CCCCCCCCCCCCCCCCCCCCCCCCCC(=O)N[C@@H](CO[C@H]1O[C@H](CO)[C@H](O)[C@H](O)[C@H]1O)[C@H](O)[C@H](O)CCCCCCCCCCCCCC` [RGI-7000], for which the result in data set [1] and in data set [2] was Active. The Activity entry in the data set on iNKT [3] and in the data set with iNKT [4] was “Non-Toxic” each time.
